# Experimental data: patent US20070027127A1, “Treatment of inflammatory oral diseases with a combination of inhibitors of TNF-alpha and immunosuppressive agents” (priority 2000, published 2007)
# Tested on: major RAS (recurrent aphthous stomatitis) mouth ulcers
# Assay: Clinical example: treatment of a human patient with longstanding major RAS
# Format: in vivo
# Protocol: There follows a description of the successful treatment of a human patient according to the invention.
# The patient was a healthy person who had longstanding major RAS. The ulcers were located throughout the patient's mouth and oropharynx. […] The patient, prior to this visit, had been treated with numerous forms of conventional therapy, including systemic steroids and other pharmaceutical agents. All treatments had failed.
# The patient was treated according to the invention as follows. The patient was given PTX tablets (one 400 mg tablet per day), combined with a rinse of the topical steroid DECADRON®.
smiles,measurement,setting,value
"CC(=O)CCCCn1c(=O)c2c(ncn2C)n(C)c1=O [PTX, 3,7-Dihydro-3,7-dimethyl-1-(5-oxohexyl)-1H-purine-2,6-dione]",Mouth ulcer status reported by the patient,"approximately six months after initial treatment with PTX tablets plus DECADRON® rinse, then topical DECADRON® rinse on individual lesions",completely without mouth ulcers for the first time in eight years
same,Resolution of the patient's major lesions,"one patient, major RAS, PTX tablets (one 400 mg tablet per day) combined with a DECADRON® rinse, prior conventional therapies failed",completely resolved all of the patient's major lesions
